Values of other authors, collected in paper PMC11357446, “Searching for Novel HDAC6/Hsp90 Dual Inhibitors with Anti-Prostate Cancer Activity: In Silico Screening and In Vitro Evaluation” (Pharmaceuticals, 2024).

Legend:
Hsp90 = Hsp90 (UniProt ID: P07900); parameters: method as in ChEMBL [62]; conditions: ChEMBL record on recombinant protein; ref ChEMBL [62]; read-out: Hsp90 IC50 (Standard Value); cited from earlier work
HDAC6 = HDAC6 (UniProt ID: Q9UBN7); parameters: method as in ChEMBL [62]; conditions: ChEMBL record on recombinant protein; ref ChEMBL [62]; read-out: HDAC6 IC50 (Standard Value); cited from earlier work

SMILES | IC50 (Hsp90) [nM] | IC50 (HDAC6) [nM]
CC(C)c1cc(-c2onc(C(=O)N[C@@H](C(=O)N3CC(F)(F)C3)C(C)C)c2-c2ccc(CN3CCOCC3)cc2)c(O)cc1O [CHEMBL4096929] | 39 | –
CC(C)c1cc(C(=O)N2Cc3ccc(NCc4ccc(C(=O)NO)cc4)cc3C2)c(O)cc1O [CHEMBL4782478] | 66 | 33.3
